# In patent US20100267561A1, “HERBICIDAL PYRIDAZINONE DERIVATIVES” (priority 2007, published 2010):
# Legend:
# Type in all cases: in vivo
# [1] = system: broadleaf signalgrass (Brachiaria platyphylla); assay: Test E pre-/postemergence plant response; conditions: scale 0 to 100
# Method in brief: (§1)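 Steps: sow seeds; apply compound preemergence in a non-phytotoxic solvent/surfactant formulation; in parallel, spray the same formulation postemergence on 1- to 4-leaf plants (2–18 cm); hold 14–21 days in a greenhouse; rate visually vs controls, 0 = no effect, 100 = complete control.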
# [2] = system: quackgrass (Elytrigia repens); assay: Test E pre-/postemergence plant response; conditions: scale 0 to 100
# Method in brief: as §1
# [3] = system: Italian ryegrass (Lolium multiflorum); assay: Test E pre-/postemergence plant response; conditions: scale 0 to 100
# Method in brief: as §1
# [4] = system: naked crabgrass (Digitaria nuda); assay: Test E pre-/postemergence plant response; conditions: scale 0 to 100
# Method in brief: as §1
# [5] = system: common purslane (Portulaca oleracea); assay: Test E pre-/postemergence plant response; conditions: scale 0 to 100
# Method in brief: as §1
# [6] = system: surinam grass (Brachiaria decumbens); assay: Test E pre-/postemergence plant response; conditions: scale 0 to 100
# Method in brief: as §1
# [7] = system: itchgrass (Rottboellia cochinchinensis); assay: Test E pre-/postemergence plant response; conditions: scale 0 to 100
# Method in brief: as §1
# [8] = system: dallisgrass (Paspalum dilatatum); assay: Test E pre-/postemergence plant response; conditions: scale 0 to 100
# Method in brief: as §1
# [9] = system: bermudagrass (Cynodon dactylon); assay: Test E pre-/postemergence plant response; conditions: scale 0 to 100
# Method in brief: as §1
# [10] = system: black mustard (Brassica nigra); assay: Test E pre-/postemergence plant response; conditions: scale 0 to 100
# Method in brief: as §1
# [11] = system: johnsongrass (Sorghum halepense); assay: Test E pre-/postemergence plant response; conditions: scale 0 to 100
# Method in brief: as §1
# wild oat (Avena fatua) = assay: Test C pre-/postemergence plant response
# Method in brief: (§2)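 Both preemergence (to planted seed) and postemergence (to plants 2–18 cm high, 1- to 4-leaf) applications used test chemicals in a non-phytotoxic solvent mixture containing surfactant. Evaluation: visual comparison with controls after 15 to 25 days; 0 means no effect, 100 complete control.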
# [12] = system: downy bromegrass (Bromus tectorum); assay: Test C pre-/postemergence plant response
# Method in brief: as §2
# [13] = Postemergence, 8 g ai/ha, scale 0 to 100, 0 no effect, 100 complete control
# [14] = Postemergence, 16 g ai/ha, scale 0 to 100, 0 no effect, 100 complete control
# [15] = Postemergence, 31 g ai/ha, scale 0 to 100, 0 no effect, 100 complete control
# [16] = Postemergence, 62 g ai/ha, scale 0 to 100, 0 no effect, 100 complete control
# [17] = Preemergence, 8 g ai/ha, scale 0 to 100 (0 no effect, 100 complete control)
# [18] = Preemergence, 16 g ai/ha, scale 0 to 100 (0 no effect, 100 complete control)
# [19] = Preemergence, 31 g ai/ha, scale 0 to 100 (0 no effect, 100 complete control)
# [20] = Preemergence, 62 g ai/ha, scale 0 to 100, 0 no effect, 100 complete control
smiles,measurement,setting,value
CCOC(=O)Oc1cnn(C)c(=O)c1-n1nc(-c2ccc(Cl)cc2)cc1C [Compound 53],"Plant response rating, Signalgrass","[1]; 16 g ai/ha, Preemergence",40
same,"Plant response rating, Signalgrass","[1]; 31 g ai/ha, Preemergence",98
same,"Plant response rating, Signalgrass","[1]; 62 g ai/ha, Preemergence",98
same,"Plant response rating, Signalgrass","[1]; Postemergence, 8 g ai/ha",90
same,"Plant response rating, Signalgrass","[1]; Postemergence, 16 g ai/ha",95
same,"Plant response rating, Signalgrass","[1]; Postemergence, 31 g ai/ha",95
same,"Plant response rating, Signalgrass","[1]; Postemergence, 62 g ai/ha",100
same,"Plant response rating, Quackgrass","[2]; 16 g ai/ha, Preemergence",35
same,"Plant response rating, Quackgrass","[2]; 31 g ai/ha, Preemergence",65
same,"Plant response rating, Quackgrass","[2]; 62 g ai/ha, Preemergence",70
same,"Plant response rating, Quackgrass","[2]; Postemergence, 8 g ai/ha",0
same,"Plant response rating, Quackgrass","[2]; Postemergence, 16 g ai/ha",0
same,"Plant response rating, Quackgrass","[2]; Postemergence, 31 g ai/ha",0
same,"Plant response rating, Quackgrass","[2]; Postemergence, 62 g ai/ha",30
same,"Plant response rating, Ryegrass, Italian","[3]; 16 g ai/ha, Preemergence",90
same,"Plant response rating, Ryegrass, Italian","[3]; 31 g ai/ha, Preemergence",100
same,"Plant response rating, Ryegrass, Italian","[3]; 62 g ai/ha, Preemergence",100
same,"Plant response rating, Ryegrass, Italian","[3]; Postemergence, 8 g ai/ha",80
same,"Plant response rating, Ryegrass, Italian","[3]; Postemergence, 16 g ai/ha",100
same,"Plant response rating, Ryegrass, Italian","[3]; Postemergence, 31 g ai/ha",100
same,"Plant response rating, Ryegrass, Italian","[3]; Postemergence, 62 g ai/ha",100
same,"Plant response rating, Crabgrass, Naked","[4]; 16 g ai/ha, Preemergence",80
same,"Plant response rating, Crabgrass, Naked","[4]; 31 g ai/ha, Preemergence",100
same,"Plant response rating, Crabgrass, Naked","[4]; 62 g ai/ha, Preemergence",100
same,"Plant response rating, Crabgrass, Naked","[4]; Postemergence, 8 g ai/ha",30
same,"Plant response rating, Crabgrass, Naked","[4]; Postemergence, 16 g ai/ha",80
same,"Plant response rating, Crabgrass, Naked","[4]; Postemergence, 31 g ai/ha",98
same,"Plant response rating, Crabgrass, Naked","[4]; Postemergence, 62 g ai/ha",100
same,"Plant response rating, Purslane","[5]; 16 g ai/ha, Preemergence",0
same,"Plant response rating, Purslane","[5]; 31 g ai/ha, Preemergence",0
same,"Plant response rating, Purslane","[5]; 62 g ai/ha, Preemergence",0
same,"Plant response rating, Purslane","[5]; Postemergence, 8 g ai/ha",0
same,"Plant response rating, Purslane","[5]; Postemergence, 16 g ai/ha",0
same,"Plant response rating, Purslane","[5]; Postemergence, 31 g ai/ha",0
same,"Plant response rating, Purslane","[5]; Postemergence, 62 g ai/ha",0
same,"Plant response rating, Surinam Grass","[6]; 16 g ai/ha, Preemergence",100
same,"Plant response rating, Surinam Grass","[6]; 31 g ai/ha, Preemergence",100
same,"Plant response rating, Surinam Grass","[6]; 62 g ai/ha, Preemergence",100
same,"Plant response rating, Surinam Grass","[6]; Postemergence, 8 g ai/ha",90
same,"Plant response rating, Surinam Grass","[6]; Postemergence, 16 g ai/ha",90
same,"Plant response rating, Surinam Grass","[6]; Postemergence, 31 g ai/ha",100
same,"Plant response rating, Surinam Grass","[6]; Postemergence, 62 g ai/ha",100
same,"Plant response rating, Itchgrass","[7]; 16 g ai/ha, Preemergence",75
same,"Plant response rating, Itchgrass","[7]; 31 g ai/ha, Preemergence",85
same,"Plant response rating, Itchgrass","[7]; 62 g ai/ha, Preemergence",90
same,"Plant response rating, Itchgrass","[7]; Postemergence, 8 g ai/ha",70
same,"Plant response rating, Itchgrass","[7]; Postemergence, 16 g ai/ha",90
same,"Plant response rating, Itchgrass","[7]; Postemergence, 31 g ai/ha",95
same,"Plant response rating, Itchgrass","[7]; Postemergence, 62 g ai/ha",98
same,"Plant response rating, Dallisgrass","[8]; 16 g ai/ha, Preemergence",65
same,"Plant response rating, Dallisgrass","[8]; 31 g ai/ha, Preemergence",80
same,"Plant response rating, Dallisgrass","[8]; 62 g ai/ha, Preemergence",95
same,"Plant response rating, Dallisgrass","[8]; Postemergence, 8 g ai/ha",0
same,"Plant response rating, Dallisgrass","[8]; Postemergence, 16 g ai/ha",20
same,"Plant response rating, Dallisgrass","[8]; Postemergence, 31 g ai/ha",30
same,"Plant response rating, Dallisgrass","[8]; Postemergence, 62 g ai/ha",75
same,"Plant response rating, Bermudagrass","[9]; 16 g ai/ha, Preemergence",80
same,"Plant response rating, Bermudagrass","[9]; 31 g ai/ha, Preemergence",98
same,"Plant response rating, Bermudagrass","[9]; 62 g ai/ha, Preemergence",98
same,"Plant response rating, Bermudagrass","[9]; Postemergence, 8 g ai/ha",50
same,"Plant response rating, Bermudagrass","[9]; Postemergence, 16 g ai/ha",70
same,"Plant response rating, Bermudagrass","[9]; Postemergence, 31 g ai/ha",80
same,"Plant response rating, Bermudagrass","[9]; Postemergence, 62 g ai/ha",98
same,"Plant response rating, Mustard, Black","[10]; 16 g ai/ha, Preemergence",0
same,"Plant response rating, Mustard, Black","[10]; 31 g ai/ha, Preemergence",0
same,"Plant response rating, Mustard, Black","[10]; 62 g ai/ha, Preemergence",25
same,"Plant response rating, Mustard, Black","[10]; Postemergence, 8 g ai/ha",0
same,"Plant response rating, Mustard, Black","[10]; Postemergence, 16 g ai/ha",0
same,"Plant response rating, Mustard, Black","[10]; Postemergence, 31 g ai/ha",0
same,"Plant response rating, Mustard, Black","[10]; Postemergence, 62 g ai/ha",0
same,"Plant response rating, Johnsongrass","[11]; 16 g ai/ha, Preemergence",70
same,"Plant response rating, Johnsongrass","[11]; 31 g ai/ha, Preemergence",90
same,"Plant response rating, Johnsongrass","[11]; 62 g ai/ha, Preemergence",95
same,"Plant response rating, Johnsongrass","[11]; Postemergence, 8 g ai/ha",50
same,"Plant response rating, Johnsongrass","[11]; Postemergence, 16 g ai/ha",100
same,"Plant response rating, Johnsongrass","[11]; Postemergence, 31 g ai/ha",100
same,"Plant response rating, Johnsongrass","[11]; Postemergence, 62 g ai/ha",100
same,"Plant response rating, Oat, Wild",wild oat (Avena fatua); [13],25
same,"Plant response rating, Oat, Wild",wild oat (Avena fatua); [14],90
same,"Plant response rating, Oat, Wild",wild oat (Avena fatua); [15],100
same,"Plant response rating, Oat, Wild",wild oat (Avena fatua); [16],100
same,"Plant response rating, Oat, Wild",wild oat (Avena fatua); [17],0
same,"Plant response rating, Oat, Wild",wild oat (Avena fatua); [18],0
same,"Plant response rating, Oat, Wild",wild oat (Avena fatua); [19],75
same,"Plant response rating, Oat, Wild",wild oat (Avena fatua); [20],85
same,"Plant response rating, Bromegrass, Downy",[12]; [13],0
same,"Plant response rating, Bromegrass, Downy",[12]; [14],20
same,"Plant response rating, Bromegrass, Downy",[12]; [15],30
same,"Plant response rating, Bromegrass, Downy",[12]; [16],90
same,"Plant response rating, Bromegrass, Downy",[12]; [17],10
same,"Plant response rating, Bromegrass, Downy",[12]; [18],20
same,"Plant response rating, Bromegrass, Downy",[12]; [19],80
same,"Plant response rating, Bromegrass, Downy",[12]; [20],85
